Like-named read-outs stand apart in the source and are kept apart here.
Tests used:
Assay type in all cases: cell-based
Details in all cases: geometric mean of at least 2 assay runs, † = single assay run
[1] = test system: Trypanosoma brucei Lister 427 VSG221 with APOL1 G2 recombinant protein; experiment: APOL1 G2 trypanosome cell rescue assay (Example B5)
Method in brief: (§1)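 Compounds in duplicate 2-fold, 11-point series with 0.4% DMSO final. Next, tag-free mature APOL1 variant protein went in from a 2 μg/mL solution, then trypanosomes to 250 per well. Plates incubated 20 h humidified at 37° C, equilibrated to room temperature, and CellTiter-Glo added for luminescence.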

[2] = test system: Trypanosoma brucei Lister 427 VSG221 with APOL1 G0 recombinant protein; experiment: APOL1 G0 trypanosome cell rescue assay (Example B5)
Method in brief: as §1

[3] = test system: HEK293 cells overexpressing APOL1 G2; experiment: APOL1 G2 HEK293 cell rescue assay (reversal of cell death caused by overexpression of APOL1)
Method in brief: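 EC50 is the half-maximal effective concentration for reversing cell death driven by APOL1 G2 overexpression in HEK293 cells. Reported as geometric mean of at least 2 runs on separate days, each run averaging duplicate wells per plate; some values from a single run.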

[4] = test system: Trypanosoma brucei Lister 427 VSG221 with APOL1 G1 recombinant protein; experiment: APOL1 G1 trypanosome cell rescue assay (Example B5)
Method in brief: as §1

[5] = Trypanosoma brucei, 20 h, read-out: APOL1 G2 Trypanosome Rescue EC50, Trypanosoma brucei Lister 427 VSG221 with APOL1 G2 recombinant protein, 20 hours, CellTiter-Glo
[6] = Trypanosoma brucei, 20 h, read-out: APOL1 G0 Trypanosome Rescue EC50, Trypanosoma brucei Lister 427 VSG221 with APOL1 G0 recombinant protein, 20 hours, CellTiter-Glo
[7] = Homo sapiens, HEK293, HEK293 overexpressing APOL1 G2
[8] = Trypanosoma brucei, 20 h, read-out: APOL1 G1 Trypanosome Rescue EC50, Trypanosoma brucei Lister 427 VSG221 with APOL1 G1 recombinant protein, 20 hours, CellTiter-Glo
[9] = read-out: APOL1 G2 Trypanosome Rescue EC50, Trypanosoma brucei Lister 427 VSG221 with APOL1 G2 recombinant protein, 20 hours, CellTiter-Glo
[10] = read-out: APOL1 G0 Trypanosome Rescue EC50, Trypanosoma brucei Lister 427 VSG221 with APOL1 G0 recombinant protein, 20 hours, CellTiter-Glo
[11] = read-out: APOL1 G1 Trypanosome Rescue EC50, Trypanosoma brucei Lister 427 VSG221 with APOL1 G1 recombinant protein, 20 hours, CellTiter-Glo

SMILES	EC50 [1, 5] [µM]	EC50 [2, 6] [µM]	EC50 [3, 7] [µM]	EC50 [4, 8] [µM]	EC50 [1, 9] [µM]	EC50 [2, 10] [µM]	EC50 ([3]; HEK293 overexpressing APOL1 G2) [µM]	EC50 [4, 11] [µM]
CC(c1ncc(OCCN2CCC3(CC2)C(=O)Nc2ccc(Cl)cc23)cn1)S(C)(=O)=O (single isomer, unassigned) [Compound 2, 5-chloro-1′-[2-({2-[(1S) or (1R)-1-methanesulfonylethyl]pyrimidin-5-yl}oxy)ethyl]-1,2-dihydrospiro[indole-3,4′-piperidin]-2-one]	0.0563	0.192	0.134	0.191				
CC(c1ncc(OCCN2CCC3(CC2)C(=O)Nc2ccc(Cl)cc23)cn1)S(C)(=O)=O (single isomer, unassigned) [Compound 3, 5-chloro-1′-[2-({2-[(1R) or (1S)-1-methanesulfonylethyl]pyrimidin-5-yl}oxy)ethyl]-1,2-dihydrospiro[indole-3,4′-piperidin]-2-one]					0.092	0.248	0.142	0.323
CC(O)c1ncc(OCCN2CCC3(CC2)C(=O)Nc2ccc(C#N)cc23)cc1C(F)(F)F (single isomer, unassigned) [Compound 376, 1′-[2-({6-[(1S) or (1R)-1-hydroxyethyl]-5-(trifluoromethyl)pyridin-3-yl}oxy)ethyl]-2-oxo-1,2-dihydrospiro[indole-3,4′-piperidine]-5-carbonitrile]			0.0469		0.0399	0.0956		0.115
CC(O)c1ncc(OCCN2CCC3(CC2)C(=O)Nc2ccc(C#N)cc23)cc1C(F)(F)F (single isomer, unassigned) [Compound 377, 1′-[2-({6-(1S) or (1R)-1-hydroxyethyl]-5-(trifluoromethyl)pyridin-3-yl}oxy)ethyl]-2-oxo-1,2-dihydrospiro[indole-3,4′-piperidine]-5-carbonitrile]					0.0978	0.205	0.0859	0.271
CS(=O)(=O)C1(c2ncc(OCCN3CCC4(CC3)C(=O)Nc3ccc(C(F)F)cc34)cn2)CC1 [Compound 5, 5-(difluoromethyl)-1′-(2-{[2-(1-methanesulfonylcyclopropyl)pyrimidin-5-yl]oxy}ethyl)-1,2-dihydrospiro[indole-3,4′-piperidin]-2-one]	0.052	0.15	0.213	0.171				
CS(=O)(=O)C1(c2ncc(OCCN3CCC4(CC3)C(=O)Nc3ccc(OC(F)F)cc34)cn2)CC1 [Compound 6, 5-(difluoromethoxy)-1′-(2-{[2-(1-methanesulfonylcyclopropyl)pyrimidin-5-yl]oxy}ethyl)-1,2-dihydrospiro[indole-3,4′-piperidin]-2-one]	0.137	0.381	0.121	0.47				
O=C1CCc2cc(OCCN3CCC4(CC3)C(=O)Nc3ccc(Cl)cc34)ccc2N1 [Compound 82, 5-chloro-1′-{2-[(2-oxo-1,2,3,4-tetrahydroquinolin-6-yl)oxy]ethyl}-1,2-dihydrospiro[indole-3,4′-piperidin]-2-one]	0.113	0.254	0.0722	0.344				
CS(=O)(=O)C1(c2c(F)cc(OCCN3CCC4(CC3)C(=O)Nc3ccc(C#N)cc34)cc2F)COC1 [Compound 84, 1′-{2-[3,5-difluoro-4-(3-methanesulfonyloxetan-3-yl)phenoxy]ethyl}-2-oxo-1,2-dihydrospiro[indole-3,4′-piperidine]-5-carbonitrile]	0.05	0.101	0.0649	0.144				
O=C1Nc2ccc(Cl)cc2C12CCN(CCOc1ccc3c(cnn3[C@H]3C[C@@H](O)C3)c1)CC2 [Compound 85, 5-chloro-1′-[2-({1-[(cis)-3-hydroxycyclobutyl]-1H-indazol-5-yl}oxy)ethyl]-1,2-dihydrospiro[indole-3,4′-piperidin]-2-one]	0.0485	0.115	0.0703	0.19				
O=C1Nc2ccc(Cl)cc2C12CCN(CCOc1ccc3c(cnn3[C@H]3C[C@H](O)C3)c1)CC2 [Compound 86, 5-chloro-1′-[2-({1-[(trans)-3-hydroxycyclobutyl]-1H-indazol-5-yl}oxy)ethyl]-1,2-dihydrospiro[indole-3,4′-piperidin]-2-one]	0.0384	0.0964	0.0465	0.137				
O=C1Nc2ccc(Cl)cc2C12CCN(CCOc1ccc3[nH]ncc3c1)CC2 [Compound 87, 5-chloro-1′-[2-(2H-indazol-5-yloxy)ethyl]-1,2-dihydrospiro[indole-3,4′-piperidin]-2-one]	0.0958	0.268	0.103	0.383				
Cn1c(=O)[nH]c2cc(OCCN3CCC4(CC3)C(=O)Nc3ccc(Cl)cc34)ccc21 [Compound 88, 5-chloro-1′-{2-[(1-methyl-2-oxo-2,3-dihydro-1H-1,3-benzodiazol-5-yl)oxy]ethyl}-1,2-dihydrospiro[indole-3,4′-piperidin]-2-one]	0.138	0.451	0.121	0.561				
CS(=O)(=O)c1c(F)cc(OCCN2CCC3(CC2)C(=O)Nc2ccc(Cl)cc23)cc1F [Compound 89, 5-chloro-1′-[2-(3,5-difluoro-4-methanesulfonylphenoxy)ethyl]-1,2-dihydrospiro[indole-3,4′-piperidin]-2-one]	0.0327	0.101	0.0557	0.114				
CS(=O)(=O)c1c(F)cc(OCCN2CCC3(CC2)C(=O)Nc2ccc(C#N)cc23)cc1F [Compound 90, 1′-[2-(3,5-difluoro-4-methanesulfonylphenoxy)ethyl]-2-oxo-1,2-dihydrospiro[indole-3,4′-piperidine]-5-carbonitrile]	0.163	0.546	0.151	0.679				
COC(=O)C1(S(=O)(=O)c2ccc(OCCN3CCC4(CC3)C(=O)Nc3ccc(Cl)cc34)cc2)CC1 [Compound 91, methyl 1-[4-(2-{5-chloro-2-oxo-1,2-dihydrospiro[indole-3,4′-piperidin]-1′-yl}ethoxy)benzenesulfonyl]cyclopropane-1-carboxylate]	0.0204	0.0546	0.0245	0.0827				
CC1(S(=O)(=O)c2ccc(OCCN3CCC4(CC3)C(=O)Nc3ccc(Cl)cc34)cc2)COC1 [Compound 92, 5-chloro-1′-(2-{4-[(3-methyloxetan-3-yl)sulfonyl]phenoxy}ethyl)-1,2-dihydrospiro[indole-3,4′-piperidin]-2-one]	0.0285	0.0844	0.0515	0.0993				
CC1(S(=O)(=O)c2ccc(OCCN3CCC4(CC3)C(=O)Nc3ccc(C#N)cc34)cc2)COC1 [Compound 93, 1′-(2-{4-[(3-methyloxetan-3-yl)sulfonyl]phenoxy}ethyl)-2-oxo-1,2-dihydrospiro[indole-3,4′-piperidine]-5-carbonitrile]	0.0569	0.156	0.0909	0.264				
CS(=O)(=O)N1CCc2cc(OCCN3CCC4(CC3)C(=O)Nc3ccc(Cl)cc34)ccc2C1 [Compound 94, 5-chloro-1′-{2-[(2-methanesulfonyl-1,2,3,4-tetrahydroisoquinolin-6-yl)oxy]ethyl}-1,2-dihydrospiro[indole-3,4′-piperidin]-2-one]	0.129	0.403	0.14	0.424				
